SMILES strings stand for the structures.

The record followed here is patent US8618299B2, “Azinone-substituted azapolycycle MCH-1 antagonists, methods of making, and use thereof” (Albany Molecular Research, Inc., priority 2009, dated 2013).

The target of one data set is human MCH-1 receptor (Homo sapiens (Human), UniProt Q99705). Briefly: Binding assay for human melanin-concentrating hormone (MCH1) receptor. The following applies: membranes from CHO-K1 cells expressing human MCH1 receptor; 1.4 nM [3H]-labeled radioligand, 60 min at 25° C., pH 7.4; Ki from Cheng Prusoff equation. Here is the method:
Binding Assay for Human Melanin-Concentrating Hormone (MCH1) Receptor
Evaluation of the affinity of compounds for the human MCH-1 receptor was accomplished using 4-(3,4,5-tritritiumbenzyloxy)-1-(1-(2-(pyrrolidin-1-yl)ethyl)-1H-indazol-5-yl)pyridin-2(1H)-one and membranes prepared from stable CHO-K1 cells expressing the human MCH1 receptor obtained from Euroscreen (Batch 1138). Cell membrane homogenates (8.92 μg protein) were incubated for 60 min at 25° C. with 1.4 nM of the [^3H]-labeled compound in the absence or presence of the test compound in 50 mM Tris-HCl buffer, pH 7.4. Nonspecific binding was determined in the presence of 50 μM 1-(5-(4-cyanophenyl)bicyclo[3.1.0]hexan-2-yl)-3-(4-fluoro-3-(trifluoromethyl)phenyl)-1-(3-(4-methylpiperazin-1-yl)propyl)urea. Following incubation, the samples were filtered rapidly under vacuum through Skatron 11731 filters, pre-soaked in 0.5% polyethylenimine, and washed with ice-cold 50 mM Tris-HCl buffer, pH 7.4, (wash setting 9,9,0) using a Skatron cell harvester. The filters were counted for radioactivity in a liquid scintillation counter (Tri-Carb 2100TR, Packard) using a scintillation cocktail (Ultima Gold MV, Perkin Elmer).
The results are expressed as a percent inhibition of the control radioligand specific binding. The IC50 value (concentration causing a half-maximal inhibition of control specific binding) and Hill coefficient (nH) were determined by non-linear regression analysis of the competition curve using Hill equation curve fitting. The inhibition constant (Ki) was calculated from the Cheng Prusoff equation: (Ki=IC50/(1+(L/KD)), where L=concentration of radioligand in the assay, and KD=affinity of the radioligand for the receptor.

human MCH-1 receptor, sequence (Q99705 whole entry): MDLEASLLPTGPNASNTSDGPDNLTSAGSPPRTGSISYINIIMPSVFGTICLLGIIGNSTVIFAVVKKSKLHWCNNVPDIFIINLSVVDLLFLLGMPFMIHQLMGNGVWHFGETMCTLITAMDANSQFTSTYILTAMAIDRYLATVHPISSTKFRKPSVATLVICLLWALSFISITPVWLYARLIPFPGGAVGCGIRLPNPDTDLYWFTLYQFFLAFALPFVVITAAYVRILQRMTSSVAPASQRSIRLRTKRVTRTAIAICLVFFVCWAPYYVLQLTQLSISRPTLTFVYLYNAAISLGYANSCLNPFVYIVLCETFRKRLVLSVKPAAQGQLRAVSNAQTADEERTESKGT

For `Cl.Cn1c2c(c3ccc(-n4ccc(-c5ccc(C(F)(F)F)cn5)cc4=O)cc31)CCN1CCCCC21` (centres unmarked) [Example 6, 1-(12-Methyl-1,2,3,4,6,7,12,12b-octahydroindolo[2,3-a]quinolizin-10-yl)-4-(5-(trifluoromethyl)pyridin-2-yl)pyridin-2(1H)-one Hydrochloride], the melting point was 280 to 284 °C. This molecule also yielded a Ki on human MCH-1 receptor of 0.481 µM.
Taken in the same sequence, the figures for `Cl.Cn1c2c(c3ccc(-n4ccc(OCc5ccccc5)cc4=O)cc31)CCN1CCCCC21` (centres unmarked) [Example 5, 4-(Benzyloxy)-1-(12-methyl-1,2,3,4,6,7,12,12b-octahydroindolo[2,3-a]quinolizin-10-yl)pyridin-2(1H)-one Hydrochloride] were 210 to 213 °C and 0.031 µM.
Molecule `Cl.Cn1c2c(c3ccc(-n4ccc(-c5ccc(Cl)cn5)cc4=O)cc31)CCN1CCCCC21` (centres unmarked) [Example 9, 4-(5-Chloropyridin-2-yl)-1-(12-methyl-1,2,3,4,6,7,12,12b-octahydroindolo[2,3-a]quinolizin-10-yl)pyridin-2(1H)-one Hydrochloride] registered a melting point of 210 to 213 °C. The same molecule yielded a Ki on human MCH-1 receptor of 1.75 µM.
Taken in the same sequence, the figures for `Cl.Cn1c2c(c3ccc(-n4ccc(OCc5ccc(F)cn5)cc4=O)cc31)CCN1CCCCC21` (centres unmarked) [Example 7, 4-((5-Fluoropyridin-2-yl)methoxy)-1-(12-methyl-1,2,3,4,6,7,12,12b-octahydroindolo[2,3-a]quinolizin-10-yl)pyridin-2(1H)-one Hydrochloride] were 200 °C (dec.) and 0.045 µM.
Consider `Cl.Cn1c2c(c3ccc(-n4ccc(-c5ccc(C(F)(F)F)nc5)cc4=O)cc31)CN1CCCCC1C2` (centres unmarked) [Example 36, 1-(5-Methyl-5,6,6a,7,8,9,10,12-octahydroindolo[2,3-b]quinolizin-3-yl)-4-(6-(trifluoromethyl)pyridin-3-yl)pyridin-2(1H)-one Hydrochloride], for which the melting point fell in the range of 245 to 248 °C. In addition, the Ki at human MCH-1 receptor was found to be 0.007 µM.
For `Cl.Cn1c2c(c3ccc(-n4ccc(OCc5ccc(C(F)(F)F)nc5)cc4=O)cc31)CN1CCCC1C2` (centres unmarked) [Example 32, 1-(10-Methyl-2,3,5,10,11,11a-hexahydro-1H-indolizino[7,6-b]indol-8-yl)-4-((6-(trifluoromethyl)pyridin-3-yl)methoxy)pyridin-2(1H)-one Hydrochloride], in that order: 255 to 259 °C and 0.024 µM.
Taken in the same sequence, the figures for `Cl.Cn1c2c(c3ccc(-n4ccc(-c5ccc(C(F)(F)F)nc5)cc4=O)cc31)C1CCCN1CC2` (centres unmarked) [Example 14, 1-(7-Methyl-2,3,5,6,7,11c-hexahydro-1H-indolizino[7,8-b]indol-9-yl)-4-(6-(trifluoromethyl)pyridin-3-yl)pyridin-2(1H)-one Hydrochloride] were 235 to 240 °C and 0.153 µM.
In the case of `Cl.Cn1c2c(c3ccc(-n4ccc(OCc5ccccc5)cc4=O)nc31)C1CCCN1CC2` (centres unmarked) [Example 44, 4-(Benzyloxy)-1-(7-methyl-2,3,5,6,7,11c-hexahydro-1H-pyrido[3′,2′:4,5]pyrrolo[2,3-g]indolizin-9-yl)pyridin-2(1H)-one Hydrochloride], the melting point was 130 to 140 °C. Affinity on human MCH-1 receptor was put at a Ki of 0.012 µM.
The molecule `Cl.Cn1c2c(c3ccc(-n4ccc(OCc5ccc(C(F)(F)F)nc5)cc4=O)cc31)CN1CCCCC1C2` (centres unmarked) [Example 34, 1-(5-Methyl-5,6,6a,7,8,9,10,12-octahydroindolo[2,3-b]quinolizin-3-yl)-4-((6-(trifluoromethyl)pyridin-3-yl)methoxy)pyridin-2(1H)-one Hydrochloride] displayed a melting point of 260 to 262 °C. On human MCH-1 receptor, this molecule showed a Ki of 0.024 µM.
For `Cl.Cn1c2c(c3ccc(-n4ccc(-c5ccc(C(F)(F)F)nc5)cc4=O)nc31)C1CCCN1CC2` (centres unmarked) [Example 48, 1-(7-Methyl-2,3,5,6,7,11c-hexahydro-1H-pyrido[3′,2′:4,5]pyrrolo[2,3-g]indolizin-9-yl)-4-(6-(trifluoromethyl)pyridin-3-yl)pyridin-2(1H)-one Hydrochloride], in that order: 290 to 300 °C and 0.047 µM.
For `Cl.Cn1c2c(c3ccc(-n4ccc(-c5ccc(C(F)(F)F)nc5)cc4=O)cc31)CN1CCCC1C2` (centres unmarked) [Example 30, 1-(10-Methyl-2,3,5,10,11,11a-hexahydro-1H-indolizino[7,6-b]indol-8-yl)-4-(6-(trifluoromethyl)pyridin-3-yl)pyridin-2(1H)-one Hydrochloride], the melting point is 290 to 293 °C. The same molecule returned a Ki at human MCH-1 receptor of 0.0083 µM.
Taken in the same sequence, the figures for `Cl.Cn1c2c(c3ccc(-n4ccc(-c5ccc(C(F)(F)F)nc5)cc4=O)nc31)CN1CCCC1C2` (centres unmarked) [Example 53, 1-(11-Methyl-5,7,8,9,9a,10-hexahydro-11H-pyrido[3′,2′:4,5]pyrrolo[3,2-f]indolizin-2-yl)-4-(6-(trifluoromethyl)pyridin-3-yl)pyridin-2(1H)-one Hydrochloride] were 280 to 290 °C and 0.033 µM.
Taken in the same sequence, the figures for `Cl.Cn1c2c(c3ccc(-n4ccc(OCc5ccc(F)cn5)cc4=O)nc31)CN1CCCC1C2` (centres unmarked) [Example 51, 4-((5-Fluoropyridin-2-yl)methoxy)-1-(11-methyl-5,7,8,9,9a,10-hexahydro-11H-pyrido[3′,2′:4,5]pyrrolo[3,2-f]indolizin-2-yl)pyridin-2(1H)-one Hydrochloride] were 220 to 230 °C and 0.037 µM.
Taken in the same sequence, the figures for `Cl.Cn1c2c(c3ccc(-n4ccc(OCc5ccc(Cl)cc5F)cc4=O)nc31)CN1CCCC1C2` (centres unmarked) [Example 54, 4-(4-Chloro-2-fluorobenzyloxy)-1-(11-methyl-5,7,8,9,9a,10-hexahydro-11H-pyrido[3′,2′:4,5]pyrrolo[3,2-f]indolizin-2-yl)pyridin-2(1H)-one Hydrochloride] were 210 to 220 °C and 0.026 µM.
Molecule `Cl.O=c1cc(OCc2ccccc2)ccn1-c1ccc2c3c([nH]c2c1)CC1CCCCN1C3` (centres unmarked) [Example 29, 4-(Benzyloxy)-1-(5,6,6a,7,8,9,10,12-octahydroindolo[2,3-b]quinolizin-3-yl)-pyridin-2(1H)-one Hydrochloride] showed a melting point of 270 to 273 °C. At human MCH-1 receptor, this molecule registered a Ki of 0.0085 µM.
`Cl.Cn1c2c(c3ccc(-n4ccc(OCc5ccc(Cl)cc5F)cc4=O)nc31)C1CCCN1CC2` (centres unmarked) [Example 47, 4-(4-Chloro-2-fluorobenzyloxy)-1-(7-methyl-2,3,5,6,7,11c-hexahydro-1H-pyrido[3′,2′:4,5]pyrrolo[2,3-g]indolizin-9-yl)pyridin-2(1H)-one Hydrochloride] registered a melting point of 150 to 160 °C. The molecule also registered a Ki on human MCH-1 receptor of 0.01 µM.
Taken in the same sequence, the figures for `Cl.O=c1cc(OCc2ccccc2)ccn1-c1ccc2c3c([nH]c2c1)CC1CCCN1C3` (centres unmarked) [Example 16, 4-(Benzyloxy)-1-(2,3,5,10,11,11a-hexahydro-1H-indolizino[7,6-b]indol-8-yl)pyridin-2(1H)-one Hydrochloride] were 270 to 273 °C and 0.007 µM.
Taken in the same sequence, the figures for `Cl.O=c1cc(-c2ccc(C(F)(F)F)cc2)ccn1-c1ccc2c3c([nH]c2c1)CCN1CCCC31` (centres unmarked) [Example 26, 1-(2,3,5,6,7,11c-Hexahydro-1H-indolizino[7,8-b]indol-9-yl)-4-(4-(trifluoromethyl)phenyl)pyridin-2(1H)-one Hydrochloride] were 280 to 290 °C and 0.012 µM.
Taken in the same sequence, the figures for `Cl.Cn1c2c(c3ccc(-n4ccc(OCc5ccccc5)cc4=O)cc31)CN1CCCC1C2` (centres unmarked) [Example 11, 4-(Benzyloxy)-1-(10-methyl-2,3,5,10,11,11a-hexahydro-1H-indolizino[7,6-b]indol-8-yl)pyridin-2(1H)-one Hydrochloride] were 255 to 258 °C and 0.0081 µM.
Molecule `Cl.Cn1c2c(c3ccc(-n4ccc(OCc5ccc(F)cc5F)cc4=O)nc31)CN1CCCC1C2` (centres unmarked) [Example 55, 4-(2,4-Difluorobenzyloxy)-1-(11-methyl-5,7,8,9,9a,10-hexahydro-11H-pyrido[3′,2′:4,5]pyrrolo[3,2-f]indolizin-2-yl)pyridin-2(1H)-one Hydrochloride] gave a melting point of 140 to 150 °C. Further, on human MCH-1 receptor, the Ki was 0.031 µM.
Consider `Cl.O=c1cc(OCc2ccc(F)cc2F)ccn1-c1ccc2c3c([nH]c2c1)CCN1CCCC31` (centres unmarked) [Example 28, 4-(2,4-difluorobenzyloxy)-1-(2,3,5,6,7,11c-hexahydro-1H-indolizino[7,8-b]indol-9-yl)pyridin-2(1H)-one Hydrochloride], for which the melting point was 210 to 220 °C. For the same molecule, the Ki on human MCH-1 receptor stood at 0.012 µM.
For `Cl.Cn1c2c(c3ccc(-n4ccc(OCc5ncc(F)cc5F)cc4=O)nc31)CN1CCCC1C2` (centres unmarked) [Example 56, 4-((3,5-Difluoropyridin-2-yl)methoxy)-1-(11-methyl-5,7,8,9,9a,10-hexahydro-11H-pyrido[3′,2′:4,5]pyrrolo[3,2-f]indolizin-2-yl)pyridin-2(1H)-one Hydrochloride], the melting point is 220 to 230 °C. The Ki at human MCH-1 receptor was found to be 0.121 µM.
